Ki data for one compound are collected here from BindingDB's records for doi:10.1016/j.bmcl.2016.03.041 (Eli Lilly, 2016).

Test [1] deals with T1, Prostaglandin E2 receptor EP3 subtype (Homo sapiens, UniProt P43115).
T1 sequence (P43115 whole entry): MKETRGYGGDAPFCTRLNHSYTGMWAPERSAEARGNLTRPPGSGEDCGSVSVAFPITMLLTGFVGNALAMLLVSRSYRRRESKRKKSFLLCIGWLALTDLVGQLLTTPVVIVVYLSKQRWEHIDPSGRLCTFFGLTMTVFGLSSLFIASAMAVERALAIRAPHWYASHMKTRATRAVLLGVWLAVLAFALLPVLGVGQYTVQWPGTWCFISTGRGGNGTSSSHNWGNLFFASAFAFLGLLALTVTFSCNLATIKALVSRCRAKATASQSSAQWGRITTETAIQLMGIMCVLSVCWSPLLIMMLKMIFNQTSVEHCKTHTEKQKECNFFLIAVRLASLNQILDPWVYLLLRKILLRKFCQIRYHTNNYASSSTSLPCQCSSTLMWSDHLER
The experiment in a line: Binding affinity to human EP3.

Test [2] deals with Prostaglandin E2 receptor EP2 subtype (Homo sapiens, UniProt P43116). The experiment in a line: Binding affinity to human EP2.
In test [3] the target is T2, Prostaglandin E2 receptor EP1 subtype (Homo sapiens, UniProt P34995).
T2 sequence (P34995 whole entry): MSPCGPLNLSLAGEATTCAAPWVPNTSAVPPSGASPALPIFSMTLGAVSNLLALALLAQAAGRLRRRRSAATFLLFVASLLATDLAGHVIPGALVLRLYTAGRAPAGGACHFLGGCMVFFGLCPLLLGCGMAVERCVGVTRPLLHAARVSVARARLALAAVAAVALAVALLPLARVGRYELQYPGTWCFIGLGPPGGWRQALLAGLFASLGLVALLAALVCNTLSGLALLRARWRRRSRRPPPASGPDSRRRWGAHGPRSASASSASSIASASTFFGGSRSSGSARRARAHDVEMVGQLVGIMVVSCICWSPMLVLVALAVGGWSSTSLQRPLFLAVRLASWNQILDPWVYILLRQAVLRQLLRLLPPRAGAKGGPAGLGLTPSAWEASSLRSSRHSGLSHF
The experiment in a line: Binding affinity to human EP1.

As usually defined, the Ki is a dissociation constant, usually derived from enzyme kinetics or from competition with a known ligand.

SMILES strings stand for the structures.

Chain of Prostaglandin E2 receptor EP2 subtype (P43116 whole entry): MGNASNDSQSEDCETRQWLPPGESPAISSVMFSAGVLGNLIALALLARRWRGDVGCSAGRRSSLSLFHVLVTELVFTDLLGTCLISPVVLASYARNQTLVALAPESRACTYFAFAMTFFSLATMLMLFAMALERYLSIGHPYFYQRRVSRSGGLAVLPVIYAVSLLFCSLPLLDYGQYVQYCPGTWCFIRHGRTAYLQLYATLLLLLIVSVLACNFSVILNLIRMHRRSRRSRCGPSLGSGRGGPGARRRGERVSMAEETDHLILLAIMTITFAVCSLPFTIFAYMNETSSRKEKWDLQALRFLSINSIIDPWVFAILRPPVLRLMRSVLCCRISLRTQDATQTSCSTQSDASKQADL

Take `Cc1ccc(N2CCC(O)CC2)nc1C(=O)Nc1c(C)cc(C(=O)O)cc1C` [US8933099, 1]: the Ki is over 14 µM in test [1], over 18.9 µM in test [2] and over 17.5 µM in test [3].
